According to PMC6832932, “Design and Selection of Novel C1s Inhibitors by In Silico and In Vitro Approaches” (Molecules, 2019):
Where two headings read alike, the source gives them in different places.

Tests used:
[1] = tested on: C1s; settings: ref [47]; cited from earlier work
[2] = molecular target: T1, C1s (Homo sapiens, UniProt P09871); settings: ref [49]; read-out: IC50 C1s, reported value; cited from earlier work
T1 construct: Recombinant C1s and C1r fragments (CCP1-CCP2-SP, the γB catalytic region); made in house
T1 sequence (P09871 438-688 limits assumed): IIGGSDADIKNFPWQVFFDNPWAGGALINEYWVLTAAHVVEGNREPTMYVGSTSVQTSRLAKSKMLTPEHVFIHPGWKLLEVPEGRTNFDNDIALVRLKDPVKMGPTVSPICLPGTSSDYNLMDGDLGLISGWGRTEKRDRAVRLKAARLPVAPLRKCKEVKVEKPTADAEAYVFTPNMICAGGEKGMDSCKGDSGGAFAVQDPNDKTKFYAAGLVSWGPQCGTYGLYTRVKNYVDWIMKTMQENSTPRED

[3] = molecular target: T1, C1s; assay: C1s inhibition IC50 assay (thioester substrate Z-Lys-SBzl with DTNB, photometric); assay type: biochemical; settings: validation with FUT175; read-out: IC50 C1s (assay validation)
Text: Recombinant C1s and C1r fragments (CCP1-CCP2-SP, the γB catalytic region) containing the serine protease domain were expressed in E. Coli BL21(DE3)pLysS host strain (transformed with pET-17b vector) in form of inclusion bodies; proteins were isolated, renatured and purified as published earlier. Recombinant C1s, isolated in intact proenzyme form, was activated by limited proteolysis using the recombinant, autoactivated C1r fragment. Activated C1s and C1r were separated using Q Sepharose HP (Amersham Biosciences, Little Chalfont, UK) anion exchange chromatography.
40 µL enzyme + 10 µL inhibitor compounds were incubated (10 min, RT), and 50 µL substrate solution (1 mM final concentration) was added; incubated for 45 min and finally absorbance was read (405 nm) with a Perkin Elmer Wallac 1420 Victor2 microplate reader.

Row | IC50 [3] | SMILES | IC50 [1] | IC50 [2]
1 |  | O=c1oc(-c2ccccc2I)nc2ccccc12 [CID296008, 2-(2′-iodophenyl)-3,1-benzoxazin-4-one] | 1250 nM | 
2 | 2 nM | N=C(N)c1ccc2cc(OC(=O)c3ccc(N=C(N)N)cc3)ccc2c1 [FUT175, nafamostat, reference compound] |  | 320 nM
